The molecules below were run against T1, apo-D-amino acid oxidase (Sus scrofa, UniProt P00371) (assay: Comparison of reactivity between various D-amino acids as substrates of FAD-reactivated apo-D-amino acid oxidase (peroxidase/DA-64 colorimetric, Hitachi 7170)). Details: 5 mM D-amino acid in reagent 1, 50 mM Tris-HCl pH 8.3; 10 U/ml apo-D-amino acid oxidase, FAD sample; 700 nm; D-valine = 100.
T1 construct: Apo-D-amino acid oxidase extracted and purified from the porcine kidneys is known and can be suitably used; purchased Calzyme Inc. 176A0025
Type: biochemical, porcine
Experimental: Reagent 1 containing 50 mM Tris-HCl (pH 8.3), 5 mM DA-64 (Wako Pure Chemical Industries), and 5 mM D-amino acid, reagent 2 containing 10 U/ml apo-D-amino acid oxidase (Calzyme Inc., Catalog No. 176A0025) and 5 U/ml peroxidase, and aqueous FAD solution as a sample were applied to a Hitachi 7170 automated analyzer at a setting of two-point end-mode and using a parameters of 7 μl for a sample, 180 μl for R1, 90 μl for R2, and 700 nm for a wavelength for determination.
As in 1), the activity of the reconstituted apoenzyme was confirmed. Assays only varying types of the D-amino acids were then performed. As D-amino acids, D-forms of Ala, Met, Val, Ile, Phe, Pro, Ser, Thr, Asn, Leu, Tyr, Trp, Asp, Glu, His, and Arg were each used. The percent reactivities of the above-mentioned various D-amino acids were calculated to the value of D-valine which was defined as 100.

T1 sequence (P00371 whole entry): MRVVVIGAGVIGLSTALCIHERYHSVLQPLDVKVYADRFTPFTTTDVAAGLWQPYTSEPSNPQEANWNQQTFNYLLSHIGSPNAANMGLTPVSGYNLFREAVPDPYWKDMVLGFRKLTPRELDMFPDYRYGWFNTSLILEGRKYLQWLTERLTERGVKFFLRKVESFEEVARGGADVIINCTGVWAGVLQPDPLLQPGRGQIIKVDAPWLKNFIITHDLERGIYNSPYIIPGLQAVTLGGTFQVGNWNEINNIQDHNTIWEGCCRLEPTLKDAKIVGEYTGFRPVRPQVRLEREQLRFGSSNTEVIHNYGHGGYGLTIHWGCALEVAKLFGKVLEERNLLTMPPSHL

Row | Structure (SMILES) | percent reactivity of D-amino acid (relative to D-valine defined as 100) [%]
1 | C[C@@H](N)C(=O)O [D-Ala] | 136
2 | NC(N)=NCCCC(N)C(=O)O [D-Arg] | 8
3 | CC[C@@H](C)[C@@H](N)C(=O)O [D-Ile] | 178
4 | CC(C)C[C@@H](N)C(=O)O [D-Leu] | 97
5 | CSCC[C@@H](N)C(=O)O [D-Met] | 322

Second part, the molecule after the results:

Row | percent reactivity of D-amino acid (relative to D-valine defined as 100) [%] | Structure (SMILES)
6 | 170 | N[C@H](Cc1ccccc1)C(=O)O [D-Phe]
7 | 374 | O=C(O)[C@H]1CCCN1 [D-Pro, D-proline]
8 | 117 | N[C@H](CO)C(=O)O [D-Ser]
9 | 14 | N[C@H](Cc1c[nH]c2ccccc12)C(=O)O [D-Trp]
10 | 159 | N[C@H](Cc1ccc(O)cc1)C(=O)O [D-Tyr, D-tyrosine]
11 | 100 | CC(C)[C@@H](N)C(=O)O [D-Val, D-valine]
